Experimental data: ChEMBL document CHEMBL4138164, “Thieno[2,3-b]pyridine derivatives are potent anti-platelet drugs, inhibiting platelet activation, aggregation and showing synergy with aspirin” (Eur J Med Chem, 2018)
The source made the active and inactive calls. The calls are words filed in the database; no cut-off is given here.

Legend:
[1] = target: P2Y purinoceptor 12 (Homo sapiens) (UniProt Q9H244); assay: Antagonist activity at P2Y12 in human platelet rich plasma assessed as inhibition of ADP-induced platelet aggregation at 10 uM pretreated for 30 mins followed by ADP addition measured after 5 mins by light transmission aggregometric analysis; format: functional
P2Y purinoceptor 12 (Homo sapiens), sequence (Q9H244 whole entry): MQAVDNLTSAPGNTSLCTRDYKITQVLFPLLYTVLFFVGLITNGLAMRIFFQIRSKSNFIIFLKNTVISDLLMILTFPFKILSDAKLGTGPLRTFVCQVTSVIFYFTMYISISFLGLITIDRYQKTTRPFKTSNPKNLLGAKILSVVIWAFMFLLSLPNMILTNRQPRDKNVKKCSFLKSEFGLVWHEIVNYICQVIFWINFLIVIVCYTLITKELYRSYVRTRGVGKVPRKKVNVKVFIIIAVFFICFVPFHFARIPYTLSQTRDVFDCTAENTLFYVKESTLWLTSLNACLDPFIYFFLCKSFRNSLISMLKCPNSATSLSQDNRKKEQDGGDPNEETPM

[2] = target: P2Y purinoceptor 12 (Homo sapiens) (UniProt Q9H244); assay: Antagonist activity at P2Y12 in human platelet rich plasma assessed as inhibition of collagen-induced platelet aggregation at 10 uM pretreated for 30 mins followed by collagen addition measured after 5 mins by light transmission aggregometric analysis; format: functional
[3] = target: P2Y purinoceptor 12 (Homo sapiens) (UniProt Q9H244); assay: Antagonist activity at P2Y12 in human whole blood assessed as inhibition of ADP-induced platelet-aggregation at 10 uM pretreated for 30 mins followed by ADP addition measured after 5 mins by FITC staining-based flow cytometric analysis; format: functional
[4] = target: P2Y purinoceptor 12 (Homo sapiens) (UniProt Q9H244); assay: Antagonist activity at P2Y12 in human platelet rich plasma assessed as inhibition of ADP-induced CD62P expression at 10 uM pretreated for 30 mins followed by ADP addition measured after 5 mins by flow cytometric analysis; format: functional
[5] = target: P2Y purinoceptor 12 (Homo sapiens) (UniProt Q9H244); assay: Antagonist activity at P2Y12 in human platelet rich plasma assessed as inhibition of ADP-induced PAC1 expression at 10 uM pretreated for 30 mins followed by ADP addition measured after 5 mins by flow cytometric analysis; format: functional
[6] = target: P2Y purinoceptor 12 (Homo sapiens) (UniProt Q9H244); assay: Synergistic inhibition of P2Y12 in human platelet rich plasma assessed as inhibition of ADP-induced platelet aggregation at 10 uM pretreated for 30 mins followed by ADP addition measured after 5 mins in presence of aspirin by light transmission aggregometric analysis; format: functional
[7] = test system: Platelet; assay: Cytotoxicity against platelet in human platelet rich plasma at 100 uM after 48 to 72 hrs; format: cell-based

| inhibition [1] | inhibition [2] | inhibition [3] | inhibition [4] | inhibition [5] | inhibition [6] | SMILES | Activity [7] |
| --- | --- | --- | --- | --- | --- | --- | --- |
| Active | inactive | Active |  |  |  | COC(=O)[C@H](c1ccccc1Cl)N1CCc2sccc2C1 |  |
| Active | Active | Active | Active | Active | Active | Nc1c(C(=O)Nc2ccccc2Cl)sc2nc3c(cc12)C(=O)CCC3 | Non-Toxic |
| Active | Active | Active | Active | Active | Active | Nc1c(C(=O)Nc2ccccc2)sc2nc3c(cc12)CCCCCC3 | Non-Toxic |
| Active | Active | Active | Active | Active | Active | Cc1c(Cl)cccc1NC(=O)c1sc2nc3c(cc2c1N)CCCCC3 | Non-Toxic |

Further lines, the molecule ahead of its results:

| SMILES | inhibition [1] | inhibition [2] | inhibition [3] | inhibition [4] | inhibition [5] | inhibition [6] | Activity [7] |
| --- | --- | --- | --- | --- | --- | --- | --- |
| CC(=O)Oc1ccccc1C(=O)O | Active |  |  |  |  |  |  |
| COc1ccc(NC(=O)c2sc3nc4c(cc3c2N)CCCCCC4)cc1 | Active | Active | Active | Active | Active | inactive | Non-Toxic |
| Cc1c(Br)cccc1NC(=O)c1sc2nc3c(cc2c1N)CCCCCC3 | Active | Active | Active | Active | Active | inactive | Non-Toxic |
| Nc1c(C(=O)Nc2cccc(Cl)c2)sc2nc3c(cc12)C(=O)CCC3 | Active | Active | Active | Active | Active | Active | Non-Toxic |
